# Measured values reported in patent publication US8642647B2, “N1-benzo[1,3]dioxol-5-ylmethyl-N2-substituted biguanide derivative, preparation method thereof, and pharmaceutical composition containing same” (Hanall Biopharma Co., Ltd., priority 2008, dated 2014).
# Where a name gives a salt, the structure may show the parent alone.
# System: HepG2 cells
# Assay: Measurement of triglyceride synthesis inhibitory ability
# Format: cell-based
# Conditions: 100 μM compound, 24 hours, HepG2 cells; content of triglyceride formed; lower value = stronger inhibition
# Procedure: (§1) 2 mM metformin was used as a comparative compound for each of the plates (control group).
# HepG2 cells (ATCC: American Type Culture Collection) were cultured in 1% serum-containing media (DMEM (Gibco), FBS (Gibco)) for 24 hours, and then treated with 100 μM or 500 μM of each of the compounds prepared in Examples for 24 hours. Then, the cells were disrupted with a lysis solution (0.1 M potassium phosphate, pH 7.4, 0.05 M NaCl, 5 mM cholic acid, 0.1% Triton X-100). To the disrupted cells was added the same volume of a reaction solution (0.76 U/ml of a glycerol kinase (Asan Pharmaceutical Co., Ltd.), […] of a peroxidase (Asan Pharmaceutical Co., Ltd.), 22.2 U/ml of a glycerol oxidizing agent (Asan Pharmaceutical Co., Ltd.), and 300 μM of Amplex red as a fluorescent factor (Molecular Probe)), which was allowed to react at 37° C. for 30 minutes. After completion of the reaction, the content of triglyceride formed in the cell lysates was measured at a wavelength of 560/590 nm (ex/em) using a fluorescence microscope.
# A lower measurement value means an increased triglyceride synthesis inhibitory ability.
row,SMILES,Triglyceride (100 μM) aver.
1,"CCN=C(NCc1ccc2c(c1)OCO2)NC(=N)N.Cl [Example 1, N1-benzo[1,3]dioxol-5-ylmethyl-N2-ethyl biguanide hydrochloride]",98.6
2,"Cl.N=C(N)NC(=NC1CCCCC1)NCc1ccc2c(c1)OCO2 [Example 2, N1-benzo[1,3]dioxol-5-ylmethyl-N2-cyclohexyl biguanide hydrochloride]",108.9
3,"N=C(N)NC(=Nc1cccc2ccccc12)NCc1ccc2c(c1)OCO2 [Example 3, N1-benzo[1,3]dioxol-5-ylmethyl-N2-(1-naphthyl)biguanide hydrochloride]",3.74
4,"CCCCCCN=C(NCc1ccc2c(c1)OCO2)NC(=N)N.Cl [Example 6, N1-benzo[1,3]dioxol-5-ylmethyl-N2-hexyl biguanide hydrochloride]",97.8
5,"N=C(N)NC(=NCCc1ccccc1)NCc1ccc2c(c1)OCO2 [Example 7, N1-benzo[1,3]dioxol-5-ylmethyl-N2-(phenethyl)biguanide hydrochloride]",77.1
6,"Cl.N=C(N)NC(=Nc1cccc(C(F)(F)F)c1)NCc1ccc2c(c1)OCO2 [Example 10, N1-benzo[1,3]dioxol-5-ylmethyl-N2-(3-trifluoromethylphenyl)biguanide hydrochloride]",11.52
7,"Cc1ccc(CN=C(NCc2ccc3c(c2)OCO3)NC(=N)N)cc1.Cl [Example 11, N1-benzo[1,3]dioxol-5-ylmethyl-N2-(4-methylbenzyl)biguanide hydrochloride]",7.49
8,"COc1ccc(OC)c(N=C(NCc2ccc3c(c2)OCO3)NC(=N)N)c1.Cl [Example 12, N1-benzo[1,3]dioxol-5-ylmethyl-N2-(2,5-dimethoxyphenyl)biguanide hydrochloride]",84.10
9,"Cl.N=C(N)NC(=Nc1ccc2c(c1)Cc1ccccc1-2)NCc1ccc2c(c1)OCO2 [Example 13, N1-benzo[1,3]dioxol-5-ylmethyl-N2-(2-fluorenyl)biguanide hydrochloride]",9.22

# Same assay, conditions: 500 μM compound, 24 hours, HepG2 cells; content of triglyceride formed; lower value = stronger inhibition
row,SMILES,Triglyceride (500 μM) aver.
1,"CCN=C(NCc1ccc2c(c1)OCO2)NC(=N)N.Cl [Example 1, N1-benzo[1,3]dioxol-5-ylmethyl-N2-ethyl biguanide hydrochloride]",49.6
2,"Cl.N=C(N)NC(=NC1CCCCC1)NCc1ccc2c(c1)OCO2 [Example 2, N1-benzo[1,3]dioxol-5-ylmethyl-N2-cyclohexyl biguanide hydrochloride]",26.9
3,"N=C(N)NC(=Nc1cccc2ccccc12)NCc1ccc2c(c1)OCO2 [Example 3, N1-benzo[1,3]dioxol-5-ylmethyl-N2-(1-naphthyl)biguanide hydrochloride]",−6.97
4,"CCCCCCN=C(NCc1ccc2c(c1)OCO2)NC(=N)N.Cl [Example 6, N1-benzo[1,3]dioxol-5-ylmethyl-N2-hexyl biguanide hydrochloride]",70.3
5,"N=C(N)NC(=NCCc1ccccc1)NCc1ccc2c(c1)OCO2 [Example 7, N1-benzo[1,3]dioxol-5-ylmethyl-N2-(phenethyl)biguanide hydrochloride]",11.8

# System: HepG2 cells
# Assay: Measurement of cholesterol synthesis inhibitory ability
# Format: cell-based
# Conditions: 100 μM compound, 24 hours, HepG2 cells; content of cholesterol formed; lower value = stronger inhibition
# Procedure: as §1
# A cholesterol synthesis inhibitory ability, which is an important function of AMPK (AMP-activated protein kinase), was measured using HepG2 cells (ATCC: American Type Culture Collection) as a hepatic cell model according to the following procedure.
# The hepatic cell model HepG2 cells were cultured in 1% serum-containing media (DMEM (Gibco), FBS (Gibco)) for 24 hours, and then treated with 100 μM or 500 μM of each of the compounds prepared in Examples for 24 hours. Then, the cells were disrupted with a lysis solution (0.1 M potassium phosphate, pH 7.4, 0.05 M NaCl, 5 mM cholic acid, 0.1% Triton X-100 (Sigma)). To the disrupted cells was added the same volume of a reaction solution (2 U/ml of a cholesterol oxidizing agent, 2 U/ml of a peroxidase, 0.2 U/ml of a cholesterol esterase, and 300 μM of Amplex red as a fluorescent factor (Molecular Probe)), which was allowed to react at 37° C. for 30 minutes. After completion of the reaction, the content of cholesterol formed in the cell lysates was measured at a wavelength of 560/590 nm (ex/em) using a fluorescence microscope.
# A lower measurement value means an increased cholesterol synthesis inhibitory ability.
row,SMILES,Cholesterol (100 μM) aver.
1,"CCN=C(NCc1ccc2c(c1)OCO2)NC(=N)N.Cl [Example 1, N1-benzo[1,3]dioxol-5-ylmethyl-N2-ethyl biguanide hydrochloride]",66.3
2,"Cl.N=C(N)NC(=NC1CCCCC1)NCc1ccc2c(c1)OCO2 [Example 2, N1-benzo[1,3]dioxol-5-ylmethyl-N2-cyclohexyl biguanide hydrochloride]",43.7
3,"N=C(N)NC(=Nc1cccc2ccccc12)NCc1ccc2c(c1)OCO2 [Example 3, N1-benzo[1,3]dioxol-5-ylmethyl-N2-(1-naphthyl)biguanide hydrochloride]",8.11
4,"CCCCCCN=C(NCc1ccc2c(c1)OCO2)NC(=N)N.Cl [Example 6, N1-benzo[1,3]dioxol-5-ylmethyl-N2-hexyl biguanide hydrochloride]",31.8
5,"N=C(N)NC(=NCCc1ccccc1)NCc1ccc2c(c1)OCO2 [Example 7, N1-benzo[1,3]dioxol-5-ylmethyl-N2-(phenethyl)biguanide hydrochloride]",23.6
6,"Cl.N=C(N)NC(=Nc1cccc(C(F)(F)F)c1)NCc1ccc2c(c1)OCO2 [Example 10, N1-benzo[1,3]dioxol-5-ylmethyl-N2-(3-trifluoromethylphenyl)biguanide hydrochloride]",33.41
7,"Cc1ccc(CN=C(NCc2ccc3c(c2)OCO3)NC(=N)N)cc1.Cl [Example 11, N1-benzo[1,3]dioxol-5-ylmethyl-N2-(4-methylbenzyl)biguanide hydrochloride]",32.34
8,"COc1ccc(OC)c(N=C(NCc2ccc3c(c2)OCO3)NC(=N)N)c1.Cl [Example 12, N1-benzo[1,3]dioxol-5-ylmethyl-N2-(2,5-dimethoxyphenyl)biguanide hydrochloride]",58.53
9,"Cl.N=C(N)NC(=Nc1ccc2c(c1)Cc1ccccc1-2)NCc1ccc2c(c1)OCO2 [Example 13, N1-benzo[1,3]dioxol-5-ylmethyl-N2-(2-fluorenyl)biguanide hydrochloride]",31.42

# Same assay, conditions: 500 μM compound, 24 hours, HepG2 cells; content of cholesterol formed; lower value = stronger inhibition
row,SMILES,Cholesterol (500 μM) aver.
1,"CCN=C(NCc1ccc2c(c1)OCO2)NC(=N)N.Cl [Example 1, N1-benzo[1,3]dioxol-5-ylmethyl-N2-ethyl biguanide hydrochloride]",50.8
2,"Cl.N=C(N)NC(=NC1CCCCC1)NCc1ccc2c(c1)OCO2 [Example 2, N1-benzo[1,3]dioxol-5-ylmethyl-N2-cyclohexyl biguanide hydrochloride]",15.6
3,"N=C(N)NC(=Nc1cccc2ccccc12)NCc1ccc2c(c1)OCO2 [Example 3, N1-benzo[1,3]dioxol-5-ylmethyl-N2-(1-naphthyl)biguanide hydrochloride]",28.8
4,"CCCCCCN=C(NCc1ccc2c(c1)OCO2)NC(=N)N.Cl [Example 6, N1-benzo[1,3]dioxol-5-ylmethyl-N2-hexyl biguanide hydrochloride]",19.1
5,"N=C(N)NC(=NCCc1ccccc1)NCc1ccc2c(c1)OCO2 [Example 7, N1-benzo[1,3]dioxol-5-ylmethyl-N2-(phenethyl)biguanide hydrochloride]",12.9

# System: HepG2 cells
# Assay: Measurement of gluconeogenesis inhibitory ability
# Format: cell-based
# Conditions: Homo sapiens, HepG2, 24 h, 100 μM compound, 24 hours, HepG2 cells; content of glucose formed from 14C-lactate; lower value = stronger inhibition; read-out: Gluconeogenesis inhibition (100 μM) aver.
# Procedure: as §1
# HepG2 cells (ATCC: American Type Culture Collection) were cultured in 10% serum-containing high glucose media, transferred to no serum-containing low glucose media (DMEM (Gibco), FBS (Gibco)), and then treated with 100 μM of each of the compounds for 24 hours. Then, the cells were treated with 0.5 μCi ^14C-lactate (Amersham Pharmacia) and 10 mM L-lactate (Sigma), and cultured for 4 hours. After cultivation, the media were removed therefrom, and the cells were washed with PBS, treated with 0.1N NaOH and kept at room temperature for 1 hour. Then, the cells were neutralized with 1N HCl, and the content of glucose formed in the cells was measured with a liquid scintillation counter.
# A lower measurement value means an increased gluconeogenesis inhibitory ability.
row,SMILES,activity at 100 µM
1,"CCN=C(NCc1ccc2c(c1)OCO2)NC(=N)N.Cl [Example 1, N1-benzo[1,3]dioxol-5-ylmethyl-N2-ethyl biguanide hydrochloride]",89.8%
2,"Cl.N=C(N)NC(=NC1CCCCC1)NCc1ccc2c(c1)OCO2 [Example 2, N1-benzo[1,3]dioxol-5-ylmethyl-N2-cyclohexyl biguanide hydrochloride]",95.2%
3,"N=C(N)NC(=Nc1cccc2ccccc12)NCc1ccc2c(c1)OCO2 [Example 3, N1-benzo[1,3]dioxol-5-ylmethyl-N2-(1-naphthyl)biguanide hydrochloride]",3.27%
4,"CCCCCCN=C(NCc1ccc2c(c1)OCO2)NC(=N)N.Cl [Example 6, N1-benzo[1,3]dioxol-5-ylmethyl-N2-hexyl biguanide hydrochloride]",104%
5,"N=C(N)NC(=NCCc1ccccc1)NCc1ccc2c(c1)OCO2 [Example 7, N1-benzo[1,3]dioxol-5-ylmethyl-N2-(phenethyl)biguanide hydrochloride]",118%
6,"Cl.N=C(N)NC(=Nc1cccc(C(F)(F)F)c1)NCc1ccc2c(c1)OCO2 [Example 10, N1-benzo[1,3]dioxol-5-ylmethyl-N2-(3-trifluoromethylphenyl)biguanide hydrochloride]",2.76%
7,"Cc1ccc(CN=C(NCc2ccc3c(c2)OCO3)NC(=N)N)cc1.Cl [Example 11, N1-benzo[1,3]dioxol-5-ylmethyl-N2-(4-methylbenzyl)biguanide hydrochloride]",1.81%
8,"COc1ccc(OC)c(N=C(NCc2ccc3c(c2)OCO3)NC(=N)N)c1.Cl [Example 12, N1-benzo[1,3]dioxol-5-ylmethyl-N2-(2,5-dimethoxyphenyl)biguanide hydrochloride]",27.4%
9,"Cl.N=C(N)NC(=Nc1ccc2c(c1)Cc1ccccc1-2)NCc1ccc2c(c1)OCO2 [Example 13, N1-benzo[1,3]dioxol-5-ylmethyl-N2-(2-fluorenyl)biguanide hydrochloride]",2.15%
